ChEMBL document CHEMBL1201862, “PubChem BioAssay data set” (2004)
The source made the active and inactive calls.

Tests used:
[1] = molecular target: T1, Kappa-type opioid receptor (Homo sapiens, UniProt P41145); type: functional
Genome polyprotein = Genome polyprotein (dengue virus type 2, UniProt P29990); assay: flavivirus cap methylation enzyme inhibition – biochemical, confirmation dose response, primary screen (AID 588689); type: functional
[2] = molecular target: T2, Delta-type opioid receptor (Homo sapiens, UniProt P41143); assay: HTS Image-Based Screen for Agonists of the DOR Receptor. [Related pubchem assays (depositor defined):AID1777, AID1786, AID2133]; type: functional
[3] = molecular target: G-protein coupled receptor 55 (Homo sapiens, UniProt Q9Y2T6); assay: inhibition of LPI-stimulated GPR55 beta-arrestin translocation – imaging, U2OS, beta-arrestin-GFP, LPI agonist, primary screen (AID 2013); type: functional;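 also: antagonist potency measured as reduced agonist-driven arrestin aggregation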
[4] = molecular target: T1, Kappa-type opioid receptor; type: functional; remark: listed apart in the source
Mu-type opioid receptor = Mu-type opioid receptor (Homo sapiens, UniProt P35372); assay: HTS Image-Based Screen for Agonists of the MOR Receptor. [Related pubchem assays (depositor defined):AID1777, AID1785, AID1786, AID2133]; type: functional;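 also: imaging of beta-arrestin GFP recruitment into spots after receptor activation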
Vero = assay: viability of Vero cells under compound – cytotoxicity control for flavivirus capping enzyme inhibitors (AID 588742); type: functional; conditions: Chlorocebus sabaeus
[5] = molecular target: T3, Type-1 angiotensin II receptor (Homo sapiens, UniProt P30556); assay: antagonism of angiotensin II type 1 receptor – cell-based, uHTS hits, selectivity assay for APJ receptor antagonist project, dose response (AID 463214); type: functional;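 also: antagonist potency against angiotensin II stimulated AT1 response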
T3 sequence (P30556 whole entry): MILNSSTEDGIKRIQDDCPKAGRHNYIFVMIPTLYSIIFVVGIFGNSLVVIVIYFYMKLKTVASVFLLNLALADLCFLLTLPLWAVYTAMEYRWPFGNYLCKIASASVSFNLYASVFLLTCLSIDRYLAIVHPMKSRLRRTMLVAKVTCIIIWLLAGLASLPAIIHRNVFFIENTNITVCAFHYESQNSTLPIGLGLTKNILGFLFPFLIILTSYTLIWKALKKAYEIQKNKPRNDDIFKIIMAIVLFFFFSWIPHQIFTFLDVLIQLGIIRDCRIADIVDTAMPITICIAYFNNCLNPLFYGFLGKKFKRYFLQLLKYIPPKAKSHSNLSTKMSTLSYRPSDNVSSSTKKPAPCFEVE

Beta Lactamase = Beta Lactamase (Pseudomonas aeruginosa, UniProt Q932Y6); assay: BLA reporter interference, concentration series – BLA reporter cells, FRET fluorescence, artefact control for TLR9-MyD88 binding inhibitor project, dose response (AID 588341); type: cell-based;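 also: cell based assay in CHO-K1 cells stably expressing beta-lactamase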
CHO = CHO cell viability loss, potency – luminescence, cytotoxicity control for TLR9-MyD88 binding inhibitor project, dose response (AID 588339); type: functional, cell-based, hamster; conditions: Cricetulus griseus;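 also: CHO cells stably coexpressing TLR9 and MyD88 fusions from primary screen; compound exposure lasted 48 hours before viability readout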
Paired box protein Pax-8 = Paired box protein Pax-8 (Homo sapiens, UniProt Q06710); assay: PAX8 transcriptional activity inhibition in RMG-I – RMG-I cells, luciferase, cherry-pick, dose response (AID 687027); type: functional, cell-based;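 also: luciferase reporter driven by Pax8 target thyroperoxidase promoter measured by SteadyGlo luminescence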
[6] = molecular target: Bifunctional protein GlmU (Mycobacterium tuberculosis, UniProt P9WMN3); assay: Inhibitors of Mycobacterial Glucosamine-1-phosphate acetyl transferase (GlmU). Secondary screen.; set-up: species or system Mycobacterium tuberculosis H37Rv
Beta-galactosidase [7] = molecular target: T4, Beta-galactosidase (Escherichia coli, UniProt Q8VNN2); type: functional
Beta-galactosidase [8] = molecular target: T4, Beta-galactosidase; assay: PubChem AID 485352; type: functional
[9] = molecular target: T2, Delta-type opioid receptor; assay: HTS Image-Based Screen for Antagonists of the DOR Receptor. [Related pubchem assays (depositor defined):AID1777, AID1785, AID1786, AID2133]; type: functional
[10] = reduction of Shn3 3'UTR-driven luciferase in osteoblasts – cell-based, Clone20 osteoblasts, firefly luciferase, cherry-picked, dose response (AID 624132); type: functional;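 also: firefly luciferase luminescence from reporter carrying the Shn3 3'UTR in osteoblasts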
[11] = loss of viability in HepG2 cells – cell-based, CellTiter-Glo, cherry-picked, cytotoxicity control for Shn3 inhibitor project, dose response (AID 624134); type: functional
[12] = A549 cell cytotoxicity, dose response, cytotoxicity control, plate reader, cherry-pick, antagonist series (AID 743412); type: functional, cell-based
[13] = molecular target: T5, Replicative DNA helicase DnaB (Mycobacterium tuberculosis, UniProt P9WMR3); assay: DnaB intein splicing inhibitors, dose response, biochemical, cell-free fluorescence (AID 449749); type: functional
T5 sequence (P9WMR3 whole entry): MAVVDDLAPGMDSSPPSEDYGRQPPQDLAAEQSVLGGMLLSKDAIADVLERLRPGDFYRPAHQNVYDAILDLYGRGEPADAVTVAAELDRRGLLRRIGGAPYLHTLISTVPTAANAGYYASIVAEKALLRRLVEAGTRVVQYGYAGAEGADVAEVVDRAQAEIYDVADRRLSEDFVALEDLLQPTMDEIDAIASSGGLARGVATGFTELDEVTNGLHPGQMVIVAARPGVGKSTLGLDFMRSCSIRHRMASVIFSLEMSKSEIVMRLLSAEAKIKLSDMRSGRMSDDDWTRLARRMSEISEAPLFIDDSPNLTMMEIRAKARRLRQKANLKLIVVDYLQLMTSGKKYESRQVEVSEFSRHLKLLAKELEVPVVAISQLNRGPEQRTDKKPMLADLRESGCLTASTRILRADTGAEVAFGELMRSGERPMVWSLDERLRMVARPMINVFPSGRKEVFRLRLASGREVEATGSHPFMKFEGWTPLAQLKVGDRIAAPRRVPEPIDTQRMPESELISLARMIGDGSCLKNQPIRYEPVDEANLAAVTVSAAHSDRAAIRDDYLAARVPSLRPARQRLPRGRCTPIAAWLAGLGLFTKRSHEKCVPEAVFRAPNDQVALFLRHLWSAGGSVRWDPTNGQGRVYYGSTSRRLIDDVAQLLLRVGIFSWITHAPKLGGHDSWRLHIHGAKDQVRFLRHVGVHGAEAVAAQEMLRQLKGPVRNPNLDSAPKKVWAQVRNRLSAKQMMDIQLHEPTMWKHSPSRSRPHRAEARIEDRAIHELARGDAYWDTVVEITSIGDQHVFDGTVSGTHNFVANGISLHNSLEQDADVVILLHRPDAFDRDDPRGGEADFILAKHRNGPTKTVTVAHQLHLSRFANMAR

[14] = viability loss in HEK293 cells – cell-based, plate reader, cherry-picked samples, cytotoxicity control, dose response (AID 743446); type: functional
[15] = blockade of melanocortin 4 receptor signaling – cell-based, plate reader, cherry pick, counter-screen for LGR2 antagonist project, dose response (AID 743444); type: functional;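 also: transfected HEK 293 cells stimulated with alpha-MSH peptide; potency of inhibitors of the alpha-MSH evoked signal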
[16] = molecular target: Heat shock protein HSP 90-alpha (Homo sapiens, UniProt P07900); type: functional, organism-based
[17] = molecular target: T6, Short transient receptor potential channel 4 (Mus musculus, UniProt Q9QUQ5); assay: block of DAMGO-driven TRPC4 calcium entry – cell-based, HEK293 TRPC4/mu-opioid, Fluo-4 calcium, dose response (AID 434942); type: functional;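 also: potency of inhibitors blocking the TRPC4 calcium response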
T6 sequence (Q9QUQ5 whole entry): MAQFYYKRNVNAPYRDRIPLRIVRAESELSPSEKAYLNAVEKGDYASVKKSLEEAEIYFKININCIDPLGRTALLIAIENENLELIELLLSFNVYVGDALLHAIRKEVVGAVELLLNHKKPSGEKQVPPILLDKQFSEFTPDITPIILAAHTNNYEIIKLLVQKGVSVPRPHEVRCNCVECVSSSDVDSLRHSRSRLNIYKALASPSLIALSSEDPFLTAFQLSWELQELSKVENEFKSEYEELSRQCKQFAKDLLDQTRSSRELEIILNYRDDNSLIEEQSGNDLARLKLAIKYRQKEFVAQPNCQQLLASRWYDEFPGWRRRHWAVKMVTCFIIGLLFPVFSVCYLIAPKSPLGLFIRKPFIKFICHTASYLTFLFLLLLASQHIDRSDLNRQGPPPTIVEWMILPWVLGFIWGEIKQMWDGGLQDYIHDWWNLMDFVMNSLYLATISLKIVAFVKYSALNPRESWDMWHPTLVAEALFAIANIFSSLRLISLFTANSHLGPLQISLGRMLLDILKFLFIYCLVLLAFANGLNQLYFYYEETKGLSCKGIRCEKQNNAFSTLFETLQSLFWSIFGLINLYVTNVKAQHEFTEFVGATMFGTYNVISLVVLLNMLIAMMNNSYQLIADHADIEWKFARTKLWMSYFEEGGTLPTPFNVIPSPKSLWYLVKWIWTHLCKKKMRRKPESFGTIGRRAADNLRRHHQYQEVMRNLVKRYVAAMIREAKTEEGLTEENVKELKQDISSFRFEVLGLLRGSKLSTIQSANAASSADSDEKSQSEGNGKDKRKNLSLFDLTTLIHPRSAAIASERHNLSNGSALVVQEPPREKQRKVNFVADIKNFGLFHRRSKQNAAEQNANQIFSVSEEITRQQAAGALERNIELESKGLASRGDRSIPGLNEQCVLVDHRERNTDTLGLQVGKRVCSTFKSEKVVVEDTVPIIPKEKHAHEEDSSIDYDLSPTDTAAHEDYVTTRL

[18] = reduced cellular PGC1a acetyl-lysine signal – cell-based, cherry-picked samples, dose response (AID 720514); type: functional;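 also: potency may reflect raised or lowered acetylation signal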
[19] = NIH3T3 cell viability loss – ATP luminescence, mouse fibroblasts, counter-screen, dose response (AID 2010); type: functional, cell-based;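 also: cells exposed to compound for about 90 hours before reading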
[20] = molecular target: T7, Polyadenylate-binding protein 1 (Homo sapiens, UniProt P11940); assay: MLLE binding blockers, Cy5 peptide tracer – biochemical, fluorescence polarization, Cy5-PAM2 peptide, secondary, miRNA deadenylation inhibitor project, dose response (AID 602260); type: functional; conditions: read-out: IC50_Mean
Protein RecA = molecular target: T8, Protein RecA (Mycobacterium tuberculosis, UniProt P9WHJ3); assay: Fluorescence Cell-Free Homogeneous Dose Retest to Identify Inhibitors of RecA-Intein Splicing Activity. [Related pubchem assays (depositor defined):AID2097, AID2223, AID489010, AID492950]; type: functional
T8 sequence (P9WHJ3 whole entry): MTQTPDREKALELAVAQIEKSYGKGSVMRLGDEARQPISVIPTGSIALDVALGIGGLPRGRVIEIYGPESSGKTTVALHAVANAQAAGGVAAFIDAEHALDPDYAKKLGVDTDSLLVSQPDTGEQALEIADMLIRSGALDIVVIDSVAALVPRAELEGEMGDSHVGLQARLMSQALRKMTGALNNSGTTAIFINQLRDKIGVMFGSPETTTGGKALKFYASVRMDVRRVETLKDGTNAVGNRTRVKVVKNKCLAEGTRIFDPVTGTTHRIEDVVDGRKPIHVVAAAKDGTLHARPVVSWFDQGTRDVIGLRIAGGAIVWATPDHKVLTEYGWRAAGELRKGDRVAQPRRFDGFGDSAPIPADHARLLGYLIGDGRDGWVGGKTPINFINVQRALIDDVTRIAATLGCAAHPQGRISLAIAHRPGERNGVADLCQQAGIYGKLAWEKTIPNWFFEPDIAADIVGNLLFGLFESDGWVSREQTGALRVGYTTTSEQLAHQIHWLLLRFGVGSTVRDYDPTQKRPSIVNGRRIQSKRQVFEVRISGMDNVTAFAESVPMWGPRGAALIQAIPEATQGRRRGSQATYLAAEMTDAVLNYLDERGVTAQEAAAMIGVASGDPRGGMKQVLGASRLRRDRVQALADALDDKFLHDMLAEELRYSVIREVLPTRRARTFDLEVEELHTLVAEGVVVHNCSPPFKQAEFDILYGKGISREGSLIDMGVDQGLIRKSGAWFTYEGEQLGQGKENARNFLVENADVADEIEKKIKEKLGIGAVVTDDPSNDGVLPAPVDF

[21] = blockers of bursicon-stimulated LGR2 cAMP reporter – cell-based, HEK293, CRE-luciferase reporter, cherry pick, set 2, dose response (AID 743343); type: functional;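 also: transfected cells were stimulated with diluted bursicon conditioned medium after compound addition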
[22] = Trypanosoma cruzi growth suppression in host cells – NIH3T3 host cells, beta-gal luminescence, confirmation (AID 2044); type: functional, cell-based;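 also: intracellular parasites grown in NIH/3T3 mouse fibroblasts as host cells; luminescent beta-galactosidase reporter signal from transgenic T. cruzi replicating inside host cells; inhibitors lower the luminescence signal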
[23] = molecular target: T7, Polyadenylate-binding protein 1; assay: MLLE domain peptide-binding blockers, IC50 – biochemical, fluorescence polarization, FITC-PAM2 peptide, dose response (AID 602259); type: functional; conditions: read-out: IC50_Mean
[24] = toxicity toward HepG2 liver cells – cell-based, plate reader, cherry-pick, antagonist series, cytotoxicity control, dose response (AID 743416); type: functional
[25] = non-specific 3'UTR reporter inhibition in Clone20-Shn3RL – cell-based, Renilla luciferase, cherry-picked, counter-screen for Shn3 inhibitor project, dose response (AID 624133); type: functional

T7 sequence (P11940 whole entry): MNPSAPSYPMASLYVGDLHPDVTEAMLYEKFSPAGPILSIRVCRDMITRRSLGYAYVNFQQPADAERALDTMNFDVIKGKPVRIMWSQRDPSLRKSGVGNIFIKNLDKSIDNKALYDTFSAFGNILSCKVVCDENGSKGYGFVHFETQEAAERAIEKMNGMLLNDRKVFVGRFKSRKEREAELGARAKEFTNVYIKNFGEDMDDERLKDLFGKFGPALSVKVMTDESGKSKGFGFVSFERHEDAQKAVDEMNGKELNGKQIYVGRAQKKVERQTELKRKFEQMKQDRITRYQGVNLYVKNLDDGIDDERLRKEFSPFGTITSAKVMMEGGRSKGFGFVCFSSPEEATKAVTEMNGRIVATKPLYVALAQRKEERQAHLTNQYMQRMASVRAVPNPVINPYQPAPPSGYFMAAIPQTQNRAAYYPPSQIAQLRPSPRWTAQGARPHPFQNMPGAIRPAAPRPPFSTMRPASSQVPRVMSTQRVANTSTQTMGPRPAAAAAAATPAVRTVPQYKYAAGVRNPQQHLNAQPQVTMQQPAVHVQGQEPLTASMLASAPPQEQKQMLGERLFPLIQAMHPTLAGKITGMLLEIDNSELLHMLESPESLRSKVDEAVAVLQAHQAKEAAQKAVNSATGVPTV
Sequence of Beta Lactamase (Q932Y6 whole entry, the tested form may be a part): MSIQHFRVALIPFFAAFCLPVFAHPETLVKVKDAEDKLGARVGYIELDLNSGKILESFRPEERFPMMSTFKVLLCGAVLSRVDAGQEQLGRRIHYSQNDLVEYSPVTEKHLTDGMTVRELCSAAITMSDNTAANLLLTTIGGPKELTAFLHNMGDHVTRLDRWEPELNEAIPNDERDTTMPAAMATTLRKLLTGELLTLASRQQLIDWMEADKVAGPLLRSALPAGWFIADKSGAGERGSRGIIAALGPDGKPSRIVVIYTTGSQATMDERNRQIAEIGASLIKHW
Sequence of Bifunctional protein GlmU (P9WMN3 whole entry): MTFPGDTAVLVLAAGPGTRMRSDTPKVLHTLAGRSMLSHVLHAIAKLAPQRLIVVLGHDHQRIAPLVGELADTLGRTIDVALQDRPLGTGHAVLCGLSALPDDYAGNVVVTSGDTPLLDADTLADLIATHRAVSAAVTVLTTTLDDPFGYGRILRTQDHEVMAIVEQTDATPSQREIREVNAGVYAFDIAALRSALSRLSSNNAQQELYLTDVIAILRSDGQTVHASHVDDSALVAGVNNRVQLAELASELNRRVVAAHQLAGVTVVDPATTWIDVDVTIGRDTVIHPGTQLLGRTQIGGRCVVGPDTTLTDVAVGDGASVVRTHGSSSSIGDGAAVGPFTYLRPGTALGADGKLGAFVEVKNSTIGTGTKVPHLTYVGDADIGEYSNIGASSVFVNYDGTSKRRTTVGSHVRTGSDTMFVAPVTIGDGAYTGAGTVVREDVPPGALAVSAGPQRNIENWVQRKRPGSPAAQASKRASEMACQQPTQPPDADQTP
T1 sequence (P41145 whole entry): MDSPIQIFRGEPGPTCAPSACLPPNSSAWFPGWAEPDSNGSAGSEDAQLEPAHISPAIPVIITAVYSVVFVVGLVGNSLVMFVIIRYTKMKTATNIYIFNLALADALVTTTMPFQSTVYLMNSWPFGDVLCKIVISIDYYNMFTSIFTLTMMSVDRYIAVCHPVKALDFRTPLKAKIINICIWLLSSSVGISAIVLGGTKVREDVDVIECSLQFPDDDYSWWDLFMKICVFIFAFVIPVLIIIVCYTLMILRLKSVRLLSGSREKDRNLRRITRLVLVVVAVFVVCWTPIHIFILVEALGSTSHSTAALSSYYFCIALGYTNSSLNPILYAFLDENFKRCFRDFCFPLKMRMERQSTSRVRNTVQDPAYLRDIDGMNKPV
T4 sequence (Q8VNN2 whole entry): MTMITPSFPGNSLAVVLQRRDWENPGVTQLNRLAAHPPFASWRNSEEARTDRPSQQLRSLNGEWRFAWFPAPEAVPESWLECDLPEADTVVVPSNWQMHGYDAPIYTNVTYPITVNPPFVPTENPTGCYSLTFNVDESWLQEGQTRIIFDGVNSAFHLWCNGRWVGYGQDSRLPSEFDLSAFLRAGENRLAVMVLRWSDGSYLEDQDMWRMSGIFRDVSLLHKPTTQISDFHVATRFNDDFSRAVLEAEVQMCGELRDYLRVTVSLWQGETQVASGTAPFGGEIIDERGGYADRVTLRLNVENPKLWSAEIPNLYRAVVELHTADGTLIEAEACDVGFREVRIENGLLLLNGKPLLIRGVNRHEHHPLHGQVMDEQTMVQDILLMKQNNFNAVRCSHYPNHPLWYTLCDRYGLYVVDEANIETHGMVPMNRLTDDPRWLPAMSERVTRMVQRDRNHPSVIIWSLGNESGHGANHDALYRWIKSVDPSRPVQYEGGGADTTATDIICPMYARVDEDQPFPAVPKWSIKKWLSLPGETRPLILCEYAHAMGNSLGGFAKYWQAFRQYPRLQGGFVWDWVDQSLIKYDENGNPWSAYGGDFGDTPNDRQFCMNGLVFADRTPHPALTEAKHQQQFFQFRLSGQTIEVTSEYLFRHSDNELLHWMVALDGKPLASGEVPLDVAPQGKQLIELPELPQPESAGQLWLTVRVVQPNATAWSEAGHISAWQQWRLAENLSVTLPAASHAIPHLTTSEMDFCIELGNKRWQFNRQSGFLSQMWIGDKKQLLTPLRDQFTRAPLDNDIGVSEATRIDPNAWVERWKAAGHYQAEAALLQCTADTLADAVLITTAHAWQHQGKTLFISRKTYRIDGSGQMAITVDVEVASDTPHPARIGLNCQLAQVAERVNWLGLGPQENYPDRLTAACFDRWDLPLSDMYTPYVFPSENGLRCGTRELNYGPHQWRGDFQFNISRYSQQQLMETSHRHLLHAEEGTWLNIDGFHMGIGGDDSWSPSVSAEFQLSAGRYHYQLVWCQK
T2 sequence (P41143 whole entry): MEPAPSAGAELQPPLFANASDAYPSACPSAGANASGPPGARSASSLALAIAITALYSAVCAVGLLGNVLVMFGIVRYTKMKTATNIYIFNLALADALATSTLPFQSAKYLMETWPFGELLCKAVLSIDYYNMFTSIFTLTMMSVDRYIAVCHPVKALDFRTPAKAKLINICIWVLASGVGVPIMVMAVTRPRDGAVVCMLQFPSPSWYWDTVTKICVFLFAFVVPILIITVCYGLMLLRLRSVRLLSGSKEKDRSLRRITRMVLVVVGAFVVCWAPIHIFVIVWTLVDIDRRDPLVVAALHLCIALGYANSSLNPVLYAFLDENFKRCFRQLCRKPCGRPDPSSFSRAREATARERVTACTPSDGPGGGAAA
Sequence of Paired box protein Pax-8 (Q06710 whole entry): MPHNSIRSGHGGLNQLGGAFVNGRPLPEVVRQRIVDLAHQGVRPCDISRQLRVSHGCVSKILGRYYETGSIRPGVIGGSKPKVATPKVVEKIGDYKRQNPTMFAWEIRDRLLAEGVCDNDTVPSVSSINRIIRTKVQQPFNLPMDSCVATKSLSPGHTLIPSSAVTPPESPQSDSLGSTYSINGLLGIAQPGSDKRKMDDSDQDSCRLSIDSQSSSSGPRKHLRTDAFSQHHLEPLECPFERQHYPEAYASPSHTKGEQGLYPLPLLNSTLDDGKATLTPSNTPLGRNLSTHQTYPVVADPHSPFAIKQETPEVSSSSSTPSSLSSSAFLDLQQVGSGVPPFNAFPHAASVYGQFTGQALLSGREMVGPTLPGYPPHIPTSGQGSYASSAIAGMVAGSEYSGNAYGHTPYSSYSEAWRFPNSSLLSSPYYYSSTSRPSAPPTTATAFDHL
Sequence of Genome polyprotein (P29990 2492-3391 limits assumed): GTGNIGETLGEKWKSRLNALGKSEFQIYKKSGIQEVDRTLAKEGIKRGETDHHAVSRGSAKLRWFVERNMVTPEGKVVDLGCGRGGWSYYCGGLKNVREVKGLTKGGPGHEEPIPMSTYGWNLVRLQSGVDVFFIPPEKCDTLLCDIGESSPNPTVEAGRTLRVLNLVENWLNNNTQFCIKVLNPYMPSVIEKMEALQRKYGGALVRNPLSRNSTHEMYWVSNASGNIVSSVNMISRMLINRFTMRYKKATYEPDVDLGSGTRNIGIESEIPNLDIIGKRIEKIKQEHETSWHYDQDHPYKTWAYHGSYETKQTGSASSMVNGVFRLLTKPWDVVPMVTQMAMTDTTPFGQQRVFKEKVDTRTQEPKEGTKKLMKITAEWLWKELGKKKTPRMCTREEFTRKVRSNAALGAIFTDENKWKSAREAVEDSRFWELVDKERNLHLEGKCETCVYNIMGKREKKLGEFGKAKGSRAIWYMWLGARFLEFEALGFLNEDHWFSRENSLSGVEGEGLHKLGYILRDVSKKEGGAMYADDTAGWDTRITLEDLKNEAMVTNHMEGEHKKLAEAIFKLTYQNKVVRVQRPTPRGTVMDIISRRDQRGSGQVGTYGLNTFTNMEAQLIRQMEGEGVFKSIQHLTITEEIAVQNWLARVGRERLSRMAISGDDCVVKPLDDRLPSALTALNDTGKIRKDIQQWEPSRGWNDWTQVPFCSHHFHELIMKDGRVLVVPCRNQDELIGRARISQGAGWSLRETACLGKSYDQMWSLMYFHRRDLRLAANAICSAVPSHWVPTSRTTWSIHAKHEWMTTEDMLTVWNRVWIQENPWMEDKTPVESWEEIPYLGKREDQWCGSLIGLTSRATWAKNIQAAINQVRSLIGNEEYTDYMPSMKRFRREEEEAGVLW
Sequence of Mu-type opioid receptor (P35372 whole entry): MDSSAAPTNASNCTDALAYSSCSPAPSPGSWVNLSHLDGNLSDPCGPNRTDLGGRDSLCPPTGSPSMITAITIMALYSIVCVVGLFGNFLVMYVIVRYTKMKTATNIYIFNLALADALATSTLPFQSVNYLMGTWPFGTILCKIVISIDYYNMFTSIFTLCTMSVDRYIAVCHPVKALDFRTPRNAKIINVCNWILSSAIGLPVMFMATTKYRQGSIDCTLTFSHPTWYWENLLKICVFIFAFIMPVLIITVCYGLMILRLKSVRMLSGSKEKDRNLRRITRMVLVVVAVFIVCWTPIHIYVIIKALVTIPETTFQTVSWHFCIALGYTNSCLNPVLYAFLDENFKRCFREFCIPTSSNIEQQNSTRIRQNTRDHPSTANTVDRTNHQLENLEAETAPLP

Cc1c(Nc2cc(Cl)c3nonc3c2[N+](=O)[O-])c(=O)n(-c2ccccc2)n1C
inactive: EC50 [2] > 32 µM | EC50 (Mu-type opioid receptor) > 32 µM | EC50 (Beta-galactosidase [7]) > 31.5 µM | EC50 (Beta-galactosidase [8]) > 40 µM | IC50 [9] > 32 µM
active: IC50 (Genome polyprotein) 21.4 µM | IC50 [3] 3.48 µM | IC50 [4] 4.14 µM | CC50 (Vero) 12.7 µM | IC50 [5] 2.33 µM | IC50 (Beta Lactamase) 6 µM | IC50 (CHO) 1.53 µM | AC50 (Paired box protein Pax-8) 8.97 µM | IC50 [6] 123 µM
30 µM: IC50 [1]

CCCNC(=O)c1nnsc1[S+]([O-])c1ccc(Cl)cc1 (stereo not given)
inconclusive: EC50 (Protein RecA) 24.4 µM
inactive: IC50 [20] > 66 µM | IC50 (Beta Lactamase) 15.6 µM | IC50 [23] > 66 µM
active: AC50 [10] 1.26 µM | AC50 [11] 29.7 µM | AC50 [12] 4.44 µM | AC50 [13] 33.8 µM | AC50 [14] 16 µM | AC50 [15] 2.29 µM | AC50 [16] 2.2 µM | EC50 [17] 7.5 µM | AC50 [18] 12.8 µM | EC50 [19] 2.21 µM | IC50 (CHO) 1.81 µM | AC50 [21] 1.85 µM | IC50 [6] 103 µM | EC50 [22] 0.886 µM | AC50 [24] 7.07 µM | AC50 [25] 6.98 µM
